The text below walks through data of doi:10.1101/2021.10.07.463234v2 (biorxiv, 2021).

In the experiment the target is SARS-CoV-2 Mac1 (Severe acute respiratory syndrome coronavirus 2, UniProt P0DTD1). The experiment can be described thus: biochemical. The conditions noted are these: for inhibition at 100 µM: read-out: %inhibition; for %inhibition: 100 µM, inhibitor.

Counter-ions that a name gives are not always drawn.

Consider `CC1(C)O[C@@H]2C[C@H]3[C@@H]4C[C@H](F)C5=CC(=O)C=C[C@]5(C)[C@@]4(F)[C@@H](O)C[C@]3(C)[C@]2(C(=O)CO)O1` [Fluocinolone Acetonide], for which the inhibition at 100 µM was found to be 0%.
The same measure, in the same setting: then `CC(=O)OCC(=O)[C@@]12OC(C)(C)O[C@@H]1C[C@H]1[C@@H]3C[C@H](F)C4=CC(=O)C=C[C@]4(C)[C@@]3(F)[C@@H](O)C[C@@]12C` [Fluocinonide], with 24.1%; and `O=C1OC2(c3ccc(O)cc3Oc3cc(O)ccc32)c2ccccc21` [Fluorescein], with 24.9%.
Same read-out and setting: the value for `CC(=O)O[C@]1(C(C)=O)CC[C@H]2[C@@H]3C[C@H](C)C4=CC(=O)C=C[C@]4(C)[C@@]3(F)[C@@H](O)C[C@@]21C` [Fluorometholone Acetate] was 22.8%.
Take `CC(=O)[C@@]1(O)CC[C@H]2[C@@H]3C[C@H](C)C4=CC(=O)C=C[C@]4(C)[C@@]3(F)[C@@H](O)C[C@@]21C` [Fluorometholone]: the “%inhibition” value is 0%.
Turning to `O=c1[nH]cc(F)c(=O)[nH]1` [Fluorouracil (5-Fluoracil, 5-FU)], the inhibition at 100 µM was 0%.
The same measure, in the same setting: then `OCCN1CCN(CC/C=C2/c3ccccc3Sc3ccc(C(F)(F)F)cc32)CC1` [Flupenthixol dihydrochloride], with 12.3%.
As to `CCOC(=O)Nc1ccc(NCc2ccc(F)cc2)nc1N` [Flupirtine maleate], the inhibition at 100 µM was found to be 4.99%.
Same read-out and setting: then `CC(C(=O)O)c1ccc(-c2ccccc2)c(F)c1` (stereo not shown) [Flurbiprofen], with 2.76%; and `CC(C)C(=O)Nc1ccc([N+](=O)[O-])c(C(F)(F)F)c1` [Flutamide], with 0%.
Still for that read-out and setting: then `CCC(=O)O[C@]1(C(=O)SCF)[C@H](C)C[C@H]2[C@@H]3C[C@H](F)C4=CC(=O)C=C[C@]4(C)[C@@]3(F)[C@@H](O)C[C@@]21C` [Fluticasone propionate], with 9.66%.
Same read-out and setting: the value for `COCCCC/C(=N\OCCN)c1ccc(C(F)(F)F)cc1` [Fluvoxamine maleate] was 0%; that for `Nc1nc(=O)c2nc(CNc3ccc(C(=O)N[C@@H](CCC(=O)O)C(=O)O)cc3)cnc2[nH]1` [Folic acid] was 11.4%; that for `Cc1cn[nH]c1` [Fomepizole] was 0%.
Consider `CO[C@H]1O[C@H](COS(=O)(=O)O)[C@@H](O[C@@H]2O[C@@H](C(=O)O)[C@@H](O[C@H]3O[C@H](COS(=O)(=O)O)[C@@H](O[C@@H]4O[C@H](C(=O)O)[C@@H](O[C@H]5O[C@H](COS(=O)(=O)O)[C@@H](O)[C@H](O)[C@H]5NS(=O)(=O)O)[C@H](O)[C@H]4O)[C@H](OS(=O)(=O)O)[C@H]3NS(=O)(=O)O)[C@H](O)[C@H]2OS(=O)(=O)O)[C@H](O)[C@H]1NS(=O)(=O)O` [Fondaparinux Sodium], for which the inhibition at 100 µM was determined as 0%.
In the case of `COc1cc2c(Oc3ccc(NC(=O)C4(C(=O)Nc5ccc(F)cc5)CC4)cc3F)ccnc2cc1OCCCN1CCOCC1` [Foretinib (GSK1363089)], the inhibition at 100 µM worked out at 0%.
Turning to `C[C@]12CCC(=O)C(O)=C1CC[C@@H]1[C@@H]2CC[C@]2(C)C(=O)CC[C@@H]12` [Formestane], the inhibition at 100 µM was 0%.
Take `C[C@@H](O[C@H]1OCCN(Cc2nn(P(=O)(O)O)c(=O)[nH]2)[C@H]1c1ccc(F)cc1)c1cc(C(F)(F)F)cc(C(F)(F)F)c1` [Fosaprepitant dimeglumine salt]: the inhibition at 100 µM is 3%.
Same read-out and setting: the value for `O=C(O)P(=O)(O)O` [Foscarnet Sodium] was 2.46%; that for `C[C@@H]1O[C@@H]1P(=O)(O)O` [Fosfomycin Disodium] was 0%; that for `O=C(O)c1ccccc1OP(=O)(O)O` [Fosfosal] was 4.81%.
The same measure, in the same setting: then `CCC(=O)O[C@@H](O[P@](=O)(CCCCc1ccccc1)CC(=O)N1C[C@H](C2CCCCC2)C[C@H]1C(=O)O)C(C)C` [Fosinopril Sodium], with 0%.
Consider `COc1cc(Nc2ncc(F)c(Nc3ccc4c(n3)N(COP(=O)(O)O)C(=O)C(C)(C)O4)n2)cc(OC)c1OC` [Fostamatinib (R788)], for which the “%inhibition” value came out at 0%.
For the compound `N[C@@H](CSCCCO)C(=O)O` [Fudosteine], the inhibition at 100 µM was determined as 0%.
On the same count and under the same terms, the value for `C[C@]12CC[C@@H]3c4ccc(O)cc4C[C@@H](CCCCCCCCC[S+]([O-])CCCC(F)(F)C(F)(F)F)[C@H]3[C@@H]1CC[C@@H]2O` (stereo partly shown) [Fulvestrant] was 1.46%; that for `CO[C@@H]1[C@H](OC(=O)/C=C/C=C/C=C/C=C/C(=O)O)CC[C@]2(CO2)[C@H]1[C@@]1(C)O[C@@H]1CC=C(C)C` [Fumagillin] was 23.6%.
The same measure, in the same setting: then `O=C(O)/C=C/C(=O)O` [Fumaric acid], with 1.89%; and `O=C1OC(CN2CCOCC2)CN1/N=C/c1ccc([N+](=O)[O-])o1` (stereo not shown) [Furaltadone HCl], with 15.8%.
Same read-out and setting: then `O=C1OCCN1/N=C/c1ccc([N+](=O)[O-])o1` [Furazolidone], with 0%.
Turning to `NS(=O)(=O)c1cc(C(=O)O)c(NCc2ccco2)cc1Cl` [Furosemide], the inhibition at 100 µM worked out at 0%.
For the compound `CC(=O)O[C@H]1C[C@@]2(C)[C@@H](C[C@@H](O)[C@H]3[C@@]4(C)CC[C@@H](O)[C@@H](C)[C@@H]4CC[C@@]32C)/C1=C(\CCC=C(C)C)C(=O)O` [Fusidate Sodium], the inhibition at 100 µM was 3.17%.
Same read-out and setting: the value for `NCC1(CC(=O)O)CCCCC1` [Gabapentin] was 0%; that for `COc1ccc2c3c1O[C@H]1C[C@@H](O)C=C[C@@]31CCN(C)C2` [Galanthamine HBr] was 0%.
Same read-out and setting: the value for `C[C@]12CC[C@H](O)CC1=CC[C@@H]1[C@@H]2CC[C@]2(C)C(n3cnc4ccccc43)=CC[C@@H]12` [Galeterone] was 31.2%.
With `CC[N+](CC)(CC)CCOc1cccc(OCC[N+](CC)(CC)CC)c1OCC[N+](CC)(CC)CC` [Gallamine Triethiodide], the inhibition at 100 µM came to 3.8%.
Still for that read-out and setting: then `O=C(O)c1cc(O)c(O)c(O)c1` [Gallic acid], with 0%; and `Cc1cccc(-c2nn3c(c2-c2ccnc4ccc(C(N)=O)cc24)CCC3)n1` [Galunisertib (LY2157299)], with 0%; and `Nc1nc2c(ncn2COC(CO)CO)c(=O)[nH]1` [Ganciclovir], with 49.4%.
The same measure, in the same setting: the value for `Cc1cc(Nc2cc(CN3CCOCC3)c3nc(C)c(Cc4ccc(Cl)cc4F)n3n2)n[nH]1` [Gandotinib (LY2784544)] was 0%; that for `CC(C)c1cc(-c2n[nH]c(=O)n2-c2ccc3c(ccn3C)c2)c(O)cc1O` [Ganetespib (STA-9090)] was 1.18%; that for `COc1c(N2CCNC(C)C2)c(F)cc2c(=O)c(C(=O)O)cn(C3CC3)c12` (stereo not shown) [Gatifloxacin] was 1.88%.
Turning to `CC(C)=CCC/C(C)=C/CC/C(C)=C/CCC(=O)OC/C=C(\C)CCC=C(C)C` [Gefarnate], the inhibition at 100 µM worked out at 5.96%.
On to `Nc1ccn([C@@H]2O[C@H](CO)[C@@H](O)C2(F)F)c(=O)n1` [Gemcitabine HCl], for which the “%inhibition” value is 0%.
On the same count and under the same terms, the value for `Nc1ccn([C@@H]2O[C@H](CO)[C@@H](O)C2(F)F)c(=O)n1` [Gemcitabine] was 32.55%.
Turning to `Cc1ccc(C)c(OCCCC(C)(C)C(=O)O)c1` [Gemfibrozil], the inhibition at 100 µM is 45.1%.
As to `O=c1c(-c2ccc(O)cc2)coc2cc(O)cc(O)c12` [Genistein], the inhibition at 100 µM was 1.56%.
